Laboratory results published in US20250368628A1, “METHODS AND COMPOUNDS FOR MODULATING INHERITED GENETIC DISEASES” (Design Therapeutics, Inc., priority 2022, published 2025).

How the values were obtained:
F35T cells = experiment: Foci reduction in FECD (CAG10-Cy3 FISH, foci per nucleus); format: cell-based; settings: F35T cells, 48 h treatment, foci per nucleus; read-out: FECD EC50, 48 h
Procedure, shortened: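 Foci per nucleus were counted by imaging after overnight CAG10-Cy3 FISH at 37 °C (30% formamide, 2×SSC) with DAPI counterstain, on PFA-fixed, ethanol-permeabilized F35T cells. The cells, seeded at 5000 per well in supplemented Opti-MEM, had received 8-point compound dilutions for 48 h at 37 °C.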

[1] = test system: Myotonic Dystrophy 1 affected patient fibroblasts (Coriel GM04602; 1600 CTG repeats); experiment: DM1 foci reduction assay (EC50 assay; CAG10-Cy3 FISH, foci per nucleus); format: cell-based; settings: Homo sapiens, Fibroblast; DM1 patient fibroblasts, 48 h treatment, foci per nucleus; read-out: DM1 EC50, 48 h
Procedure, shortened: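 Foci per nucleus counted by 20× imaging of 4 areas per well, after overnight FISH with 5 nM CAG10-Cy3 and DAPI staining of fixed, permeabilized cells. DM1 fibroblasts (GM04602, 1600 CTG) were dosed 48 h at 37 °C, 8 points, 3-fold dilutions, 3 μM top concentration.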

| SMILES | EC50 (F35T cells) [nM] | EC50 [1] [nM] |
| --- | --- | --- |
| COC(=O)CCCN(CCCC(=O)OC)Cc1ncc(C2CN(C(=O)CCNC(=O)c3nc(NC(=O)c4cc(NC(=O)CCNC(=O)c5nc(NC(=O)CCCNC(=O)c6cc(NC(=O)c7nc(NC(=O)CCNC(=O)c8cc(NC(=O)c9nccn9C)cn8C)cn7C)cn6C)cn5C)cn4C)cn3C)C2)[nH]1 [Compound B-369] | 100 to 500 | > 1000 |
| COC(=O)CCCN(CCCC(=O)O)Cc1ncc(C2CN(C(=O)CCNC(=O)c3nc(NC(=O)c4cc(NC(=O)CCNC(=O)c5nc(NC(=O)CCCNC(=O)c6cc(NC(=O)c7nc(NC(=O)CCNC(=O)c8cc(NC(=O)c9nccn9C)cn8C)cn7C)cn6C)cn5C)cn4C)cn3C)C2)[nH]1 [Compound B-370] | > 1000 | > 1000 |
| Cn1cc(NC(=O)c2nc(NC(=O)CCNC(=O)c3cc(NC(=O)c4nccn4C)cn3C)cn2C)cc1C(=O)NCCCC(=O)Nc1cn(C)c(C(=O)NCCC(=O)Nc2cc(C(=O)Nc3cn(C)c(C(=O)NCCC(=O)N4CC(c5cnc(CN(CCCC(=O)O)CCCC(=O)O)[nH]5)C4)n3)n(C)c2)n1 [Compound B-371] | > 1000 | > 1000 |
| CCCNC(=O)CCNC(=O)c1nc(NC(=O)c2cc(NC(=O)CCNC(=O)c3nc(NC(=O)CCCNC(=O)c4cc(NC(=O)c5nc(NC(=O)CCNC(=O)c6cc(NC(=O)c7nccn7C)cn6C)cn5C)cn4CCOCCNC(=O)OC(C)(C)C)cn3C)cn2C)cn1C [Compound B-372] | < 100 | < 100 |
| CCOC(=O)c1nc(NC(=O)c2cc(NC(=O)CCNC(=O)c3nc(NC(=O)CCCNC(=O)c4cc(NC(=O)c5nc(NC(=O)CCNC(=O)c6cc(NC(=O)c7nccn7C)cn6C)cn5C)cn4CCCCCCN=[N+]=[N-])cn3C)cn2C)c[nH]1 [Compound B-373] | > 1000 | > 1000 |
| CCOC(=O)c1nc(NC(=O)c2cc(NC(=O)CCNC(=O)c3nc(NC(=O)CCCNC(=O)c4cc(NC(=O)c5nc(NC(=O)CCNC(=O)c6cc(NC(=O)c7nccn7C)cn6C)cn5C)cn4CCCCCCn4cc(COCCOCCOCCOC)nn4)cn3C)cn2C)cn1C [Compound B-374] | > 1000 | > 1000 |
| CCOC(=O)c1nc(NC(=O)c2cc(NC(=O)CCNC(=O)c3nc(NC(=O)CCCNC(=O)c4cc(NC(=O)c5nc(NC(=O)CCNC(=O)c6cc(NC(=O)c7nccn7C)cn6C)cn5C)cn4CCCCCCn4nnc5c4-c4ccccc4N(C(=O)CCC(=O)NCCOCCOCCCCCCCl)Cc4ccccc4-5)cn3C)cn2C)cn1C [Compound B-375] | > 1000 | > 1000 |
| CCCNC(=O)c1nc(NC(=O)c2cc(NC(=O)CCNC(=O)c3nc(NC(=O)CCCNC(=O)c4cc(NC(=O)c5nc(NC(=O)CCNC(=O)c6cc(NC(=O)c7nccn7C)cn6C)cn5C)cn4CCCCCCn4cc(COCCOCCOCCOC)nn4)cn3C)cn2C)cn1C [Compound B-376] | 100 to 500 | > 1000 |
| Cn1cc(NC(=O)c2nc(NC(=O)CCNC(=O)c3cc(NC(=O)c4nccn4C)cn3C)cn2C)cc1C(=O)NCCCC(=O)Nc1cn(C)c(C(=O)NCCC(=O)Nc2cc(C(=O)Nc3cn(C)c(C(=O)NCCC#N)n3)n(C)c2)n1 [Compound B-377] | < 100 | 100 to 500 |
| Cn1cc(NC(=O)c2nc(NC(=O)CCNC(=O)c3cc(NC(=O)c4nccn4C)cn3C)cn2C)cc1C(=O)NCCCC(=O)Nc1cn(C)c(C(=O)NCCC(=O)Nc2cc(C(=O)Nc3cn(C)c(C(=O)NCCC(=O)N4CCC(C#CC#CC5CCN(C(=O)OC(C)(C)C)CC5)CC4)n3)n(C)c2)n1 [Compound B-378, Tert-butyl 4-[4-(1-{3-[(1-methyl-4-{1-methyl-4-[3-({1-methyl-4-[4-({1-methyl-4-[1-methyl-4-(3-{[1-methyl-4-(1-methylimidazole-2-amido)pyrrol-2-yl]formamido}propanamido)imidazole-2-amido]pyrrol-2-yl}formamido)butanamido]imidazol-2-yl}formamido)propanamido]pyrrole-2-amido}imidazol-2-yl)formamido]propanoyl}piperidin-4-yl)buta-1,3-diyn-1-yl]piperidine-1-carboxylate] | 100 to 500 | > 1000 |
